{"source": "paper PMC10866072", "about": "“Design, synthesis, molecular modelling and biological evaluation of novel 6-amino-5-cyano-2-thiopyrimidine derivatives as potent anticancer agents against leukemia and apoptotic inducers” (Journal of Enzyme Inhibition and Medicinal Chemistry, 2024)", "key": {"[1]": {"test": "MTT cytotoxicity on normal cells", "type": "cell-based", "conditions": "human, WI-38 cells (normal lung fibroblasts), WI-38 normal cells, mean ± SD of three experiments, read-out: IC50 (cytotoxic activity)", "experimental": "The American Type Culture Collection provided WI-38 cells (normal lung cells). The cells were grown in DMEM with 10% heat-inactivated FBS (Hyclone), 10 µg/ml of insulin (Sigma), and 1% penicillin-streptomycin. The remaining chemicals and reagents were all from Sigma or Invitrogen. The MTT test was used to evaluate cytotoxicity, as described previously. Graph pad Prism software (San Diego, CA) was used to estimate the 50% inhibitory concentration (IC50) from dose response curve graphic plots for each conc."}, "[2]": {"test_system": "SW480", "parameters": "method as in PMID 32645482", "conditions": "cited from earlier work"}, "[3]": {"test_system": "A549", "parameters": "method as in PMID 31525523", "conditions": "cited from earlier work"}, "[4]": {"test_system": "HeLa", "parameters": "method as in PMID 31525523", "conditions": "cited from earlier work"}}, "data": [{"smiles": "C[C@H](Nc1ncnc2[nH]cnc12)c1cc2cccc(Cl)c2c(=O)n1-c1ccccc1", "note": "[Duvelisib]", "values": [{"measurement": "IC50", "setting": "[1]", "value": "22.8 ± 0.65", "unit": "µM"}]}, {"smiles": "NC1=NC(NC(=O)Nc2ccc(Cl)c(C(F)(F)F)c2)=CC(c2ccccc2)N1", "note": "(centres unmarked) [XIX]", "values": [{"measurement": "IC50", "setting": "[2]", "value": 11.1, "unit": "µM"}]}, {"smiles": "COc1cc(C2=NC3N=C(C)C(C(C)=O)C(c4ccc([N+](=O)[O-])cc4)N3N2)cc(OC)c1OC", "note": "(centres unmarked) [XXI]", "values": [{"measurement": "IC50", "setting": "[3]", "value": 1.02, "unit": "µM"}, {"measurement": "IC50", "setting": "[4]", "value": 0.75, "unit": "µM"}]}, {"smiles": "C#Cc1cccc(Nc2ncnc3cc(OCCOC)c(OCCOC)cc23)c1", "note": "[erlotinib]", "values": [{"measurement": "IC50", "setting": "[1]", "value": "22.8 ± 0.65", "unit": "µM"}]}]}
